Assay results reported in US20240400544A1, “N-(HYDROXYALKYL (HETERO)ARYL) TETRAHYDROFURAN CARBOXAMIDE ANALOGS AS MODULATORS OF SODIUM CHANNELS” (VERTEX PHARMACEUTICALS INCORPORATED, priority 2021, published 2024).

Target: human NaV 1.8 (Homo sapiens, UniProt Q9Y5Y9)
Assay: E-VIPR Assay Detecting and Measuring NaV Inhibition Properties
Type: cell-based
Conditions: HEK cells expressing a truncated form of human NaV 1.8 with full channel activity; electrical stimulation, membrane potential FRET dyes; read-out: measured IC50 value in the E-VIPR Assay
Text: E-VIPR Assay Detecting and Measuring NaV Inhibition Properties
Sodium ion channels are voltage-dependent proteins that can be activated by inducing membrane voltage changes by applying electric fields. The electrical stimulation instrument and methods of use, referred to as E-VIPR, are described in International Publication No. WO 2002/008748 A3 and C.-J. Huang et al. Characterization of voltage-gated sodium channel blockers by electrical stimulation and fluorescence detection of membrane potential, 24 Nature Biotech. 439-46 (2006), both of which are incorporated by reference in their entirety. The instrument comprises a microtiter plate handler, an optical system for exciting the coumarin dye while simultaneously recording the coumarin and oxonol emissions, a waveform generator, a current- or voltage-controlled amplifier, and parallel electrode pairs that are inserted into assay plate wells. Under integrated computer control, this instrument passes user-programmed electrical stimulus protocols to cells within the wells of the microtiter plate.
16-20 hours prior to running the assay on E-VIPR, HEK cells expressing a truncated form of human NaV 1.8 with full channel activity were seeded into microtiter 384-well plates, pre-coated with matrigel, at a density of 25,000 cells per well. 2.5-5% KIR2.1 Bacmam virus was added to the final cell suspension before seeding into cell plates. HEK cells were grown in Dulbecco's Modified Eagle's Medium (DMEM) supplemented with 10% FBS (Fetal Bovine Serum, qualified; Sigma #F4135), 1% NEAA (Non-Essential Amino Acids, Gibco #11140), 1% HEPES (Gibco #15630), 1% Pen-Strep (Penicillin-Streptomycin; Gibco #15140) and 5 μg/ml Blasticidin (Gibco #R210-01). Cells were expanded in vented cap cell culture flasks, with 90-95% humidity and 5% CO2.
2.5-5% KIR 2.1 Bacmam virus (produced in-house), prepared as described in Section 3.3 of J. A. Fornwald et al., Gene Expression in Mammalian Cells Using BacMam, a Modified Baculovirus System, 1350 Methods in Molecular Biology 95-116 (2016), the entire contents of which are incorporated by reference. The concentration used can be dependent on viral titer of each batch.
5 mM DiSBAC6(3), a voltage sensitive oxonol acceptor (CAS number 169211-44-3; 5-[3-(1,3-dihexylhexahydro-4,6-dioxo-2-thioxo-5-pyrimidinyl)-2-propen-1-ylidene]-1,3-dihexyldihydro-2-thioxo-4,6(1H,5H)-pyrimidinedione), in dry DMSO. The preparation of DiSBAC6(3) is analogous to that of DiSBAC4(3) as described in Voltage Sensing by Fluorescence Resonance Energy Transfer in Single Cells, Gonzalez, J. E. and Tsien, R. Y. (1995) Biophys. J. 69, 1272-1280.
5 mM CC2-DMPE, a commercially available membrane-bound coumarin phospholipid FRET donor (ThermoFisher Scientific catalog number K1017, CAS number 393782-57-5; tetradecanoic acid, 1,1′-[(1R)-1-[8-(6-chloro-7-hydroxy-2-oxo-2H-1-benzopyran-3-yl)-3-hydroxy-3-oxido-8-oxo-2,4-dioxa-7-aza-3-phosphaoct-1-yl]-1,2-ethanediyl] ester) was prepared in dry DMSO. See also, Improved indicators of cell membrane potential that use fluorescence resonance energy transfer, Gonzalez, J. E. and Tsien, R. Y. (1997) Chem. Biol. 4, 269-277.
Voltage Assay Background Suppression Compound (VABSC-1) is prepared in H2O (89-363 mM, range used to maintain solubility)
Human Serum (HS, Millipore #S1P1-01KL, or Sigma SLBR5469V and SLBR5470V as a 50%/50% mixture, for 25% assay final concentration)
• Sodium Chloride 160 mM (9.35 g/L), Potassium Chloride, 4.5 mM (0.335 g/L), Glucose • 10 mM (1.8 g/L), Magnesium Chloride (Anhydrous) 1 mM (0.095 g/L), Calcium • Chloride 2 mM (0.222 g/L), HEPES 10 mM (2.38 g/L) in water.
• Sodium Chloride 96 mM (5.61 g/L), Potassium Chloride 4.5 mM (0.335 g/L), • Tetramethylammonium (TMA)-Cl 64 mM (7.01 g/L), Glucose 10 mM (1.8 g/L), • Magnesium Chloride (Anhydrous) 1 mM (0.095 g/L), Calcium Chloride 2 mM (0.222 • g/L) HEPES 10 mM (2.38 g/L) in water. […]

Chain of human NaV 1.8 (Q9Y5Y9 126-1722 limits assumed): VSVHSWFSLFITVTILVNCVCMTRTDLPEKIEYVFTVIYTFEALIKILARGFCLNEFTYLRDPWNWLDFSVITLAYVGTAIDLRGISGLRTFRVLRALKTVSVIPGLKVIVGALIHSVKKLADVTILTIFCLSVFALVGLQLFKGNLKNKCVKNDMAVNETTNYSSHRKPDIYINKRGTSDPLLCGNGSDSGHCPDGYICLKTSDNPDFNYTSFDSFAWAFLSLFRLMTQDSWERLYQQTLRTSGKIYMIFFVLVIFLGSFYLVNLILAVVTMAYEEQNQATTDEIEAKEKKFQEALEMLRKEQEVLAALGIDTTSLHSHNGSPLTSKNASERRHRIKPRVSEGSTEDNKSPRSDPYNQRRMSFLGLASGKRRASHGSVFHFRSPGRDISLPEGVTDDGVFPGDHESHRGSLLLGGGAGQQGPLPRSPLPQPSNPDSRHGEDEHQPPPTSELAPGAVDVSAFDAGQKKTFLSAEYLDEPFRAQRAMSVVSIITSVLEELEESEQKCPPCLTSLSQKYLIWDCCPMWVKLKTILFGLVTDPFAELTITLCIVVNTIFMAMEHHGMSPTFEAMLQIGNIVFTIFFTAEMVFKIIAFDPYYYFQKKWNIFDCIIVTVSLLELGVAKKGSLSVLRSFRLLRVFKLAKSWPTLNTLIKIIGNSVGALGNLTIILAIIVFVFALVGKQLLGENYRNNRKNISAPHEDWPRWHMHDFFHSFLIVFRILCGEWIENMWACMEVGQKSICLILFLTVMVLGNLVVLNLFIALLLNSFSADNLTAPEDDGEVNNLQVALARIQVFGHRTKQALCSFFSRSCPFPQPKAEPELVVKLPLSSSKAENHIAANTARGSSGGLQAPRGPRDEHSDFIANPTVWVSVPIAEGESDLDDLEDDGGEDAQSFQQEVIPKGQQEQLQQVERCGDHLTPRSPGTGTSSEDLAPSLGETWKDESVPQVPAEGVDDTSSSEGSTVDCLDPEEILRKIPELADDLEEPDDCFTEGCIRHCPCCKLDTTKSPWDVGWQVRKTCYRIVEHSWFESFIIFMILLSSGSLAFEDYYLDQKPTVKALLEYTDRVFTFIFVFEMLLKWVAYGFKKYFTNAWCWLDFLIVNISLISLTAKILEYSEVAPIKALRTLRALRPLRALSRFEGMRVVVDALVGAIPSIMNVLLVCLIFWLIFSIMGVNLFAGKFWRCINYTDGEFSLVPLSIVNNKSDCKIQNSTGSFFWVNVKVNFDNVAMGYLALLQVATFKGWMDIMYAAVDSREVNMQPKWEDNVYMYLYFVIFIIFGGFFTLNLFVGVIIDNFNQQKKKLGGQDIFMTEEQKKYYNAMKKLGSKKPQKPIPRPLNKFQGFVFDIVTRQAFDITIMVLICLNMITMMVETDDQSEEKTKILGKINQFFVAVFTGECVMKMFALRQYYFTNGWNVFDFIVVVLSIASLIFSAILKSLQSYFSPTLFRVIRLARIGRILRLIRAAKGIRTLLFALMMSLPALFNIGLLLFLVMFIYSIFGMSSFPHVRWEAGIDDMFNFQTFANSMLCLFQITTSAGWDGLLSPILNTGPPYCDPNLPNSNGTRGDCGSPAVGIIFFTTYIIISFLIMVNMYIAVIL

Row | Structure (SMILES) | IC50 [nM]
1 | C[C@H]1[C@@H](c2ccc(F)c(F)c2OCCOC(F)F)[C@H](C(=O)Nc2ccc([C@@H](O)CO)nc2)O[C@@]1(C)C(F)(F)F [Compound 12, (2R,3S,4S,5R)-3-(2-(2-(difluoromethoxy)ethoxy)-3,4-difluorophenyl)-N-(6-((R)-1,2-dihydroxyethyl)pyridin-3-yl)-4,5-dimethy1-5-(trifluoromethyl)tetrahydrofuran-2-carboxamide] | 10 to 100
2 | CO[C@H](C)COc1c([C@H]2[C@H](C(=O)Nc3ccc(CO)nc3)O[C@@](C)(C(F)(F)F)[C@H]2C)ccc(F)c1F [Compound 6, (2R,3S,4S,5R)-3-(3,4-difluoro-2-((R)-2-methoxypropoxy)phenyl)-N-(6-(hydroxymethyl)pyridin-3-yl)-4,5-dimethyl-5-(trifluoromethyl)tetrahydrofuran-2-carboxamide] | 10 to 100
3 | COc1c([C@H]2[C@H](C(=O)Nc3cnc4c(c3)OCC4O)O[C@@](C)(C(F)(F)F)[C@H]2C)ccc(F)c1F (single isomer, unassigned) [Compound 1, rel-(2R*,3S*,4S*,5R*)-3-(3,4-difluoro-2-methoxyphenyl)-N-(3-hydroxy-2,3-dihydrofuro[3,2-b]pyridin-6-yl)-4,5-dimethyl-5-(trifluoromethyl)tetrahydrofuran-2-carboxamide] | 10 to 100
4 | C[C@H]1[C@@H](c2ccc(F)c(F)c2OCC(=O)N(C)C)[C@H](C(=O)Nc2ccc(CO)nc2)O[C@@]1(C)C(F)(F)F [Compound 7, (2R,3S,4S,5R)-3-(2-(2-(dimethylamino)-2-oxoethoxy)-3,4-difluorophenyl)-N-(6-(hydroxymethyl)pyridin-3-yl)-4,5-dimethyl-5-(trifluoromethyl)tetrahydrofuran-2-carboxamide] | 10 to 100
5 | C[C@H]1[C@@H](c2ccc(F)c(F)c2OCCN2C[C@H]3COC[C@H]3C2)[C@H](C(=O)Nc2cnc(CO)nc2)O[C@@]1(C)C(F)(F)F [Compound 26, (2R,3S,4S,5R)-3-(3,4-difluoro-2-(2-((3aR,6aS)-tetrahydro-1H-furo[3,4-c]pyrrol-5(3H)-yl)ethoxy)phenyl)-N-(2-(hydroxymethyl)pyrimidin-5-yl)-4,5-dimethyl-5-(trifluoromethyl)tetrahydrofuran-2-carboxamide] | 100 to 1000
6 | COCCOc1c([C@H]2[C@@H](C)[C@@](C)(C(F)(F)F)O[C@H]2C(=O)Nc2cnc(C(O)CO)nc2)ccc(F)c1C (single isomer, unassigned) [Compound 15] | ≥ 1000
7 | C[C@H]1[C@@H](c2ccc(F)c(F)c2OCCN2CCOCC2)[C@H](C(=O)Nc2ccc(CO)nc2)O[C@@]1(C)C(F)(F)F [Compound 25, (2R,3S,4S,5R)-3-(3,4-difluoro-2-(2-morpholinoethoxy)phenyl)-N-(6-(hydroxymethyl)pyridin-3-yl)-4,5-dimethyl-5-(trifluoromethyl)tetrahydrofuran-2-carboxamide] | 10 to 100
8 | COCCOc1c([C@@H]2[C@@H](C(=O)Nc3cnc(C(O)CO)nc3)O[C@](C)(C(F)(F)F)[C@@H]2C)ccc(F)c1C (single isomer, unassigned) [Compound 13] | ≥ 1000
9 | C[C@H]1[C@@H](c2ccc(F)c(F)c2OCCO)[C@H](C(=O)Nc2ccc(CO)nc2)O[C@@]1(C)C(F)(F)F [Compound 23, (2R,3S,4S,5R)-3-(3,4-difluoro-2-(2-hydroxyethoxy)phenyl)-N-(6-(hydroxymethyl)pyridin-3-yl)-4,5-dimethyl-5-(trifluoromethyl)tetrahydrofuran-2-carboxamide] | 10 to 100
10 | COc1c([C@H]2[C@H](C(=O)Nc3cnc4c(c3)CCC4O)O[C@@](C)(C(F)(F)F)[C@H]2C)ccc(F)c1F (single isomer, unassigned) [Compound 3, rel-(2R*,3S*,4S*,5R*)-3-(3,4-difluoro-2-methoxyphenyl)-N-(7-hydroxy-6,7-dihydro-5H-cyclopenta[b]pyridin-3-yl)-4,5-dimethyl-5-(trifluoromethyl)tetrahydrofuran-2-carboxamide] | 100 to 1000
11 | COCCOc1c([C@H]2[C@H](C(=O)Nc3ccc([C@@H](O)CO)nc3)O[C@@](C)(C(F)(F)F)[C@H]2C)ccc(F)c1F [Compound 10, (2R,3S,4S,5R)-3-(3,4-difluoro-2-(2-methoxyethoxy)phenyl)-N-(6-((R)-1,2-dihydroxyethyl)pyridin-3-yl)-4,5-dimethyl-5-(trifluoromethyl)tetrahydrofuran-2-carboxamide] | < 10

Other lines, results leading:

Row | IC50 [nM] | Structure (SMILES)
12 | 10 to 100 | CO[C@@H](C)COc1c([C@H]2[C@H](C(=O)Nc3ccc(CO)nc3)O[C@@](C)(C(F)(F)F)[C@H]2C)ccc(F)c1F [Compound 5, (2R,3S,4S,5R)-3-(3,4-difluoro-2-((S)-2-methoxypropoxy)phenyl)-N-(6-(hydroxymethyl)pyridin-3-yl)-4,5-dimethyl-5-(trifluoromethyl)tetrahydrofuran-2-carboxamide]
13 | 10 to 100 | C[C@H]1[C@@H](c2ccc(F)c(F)c2OCCN2CCOCC2)[C@H](C(=O)Nc2ccc([C@@H](O)CO)nc2)O[C@@]1(C)C(F)(F)F [Compound 11, (2R,3S,4S,5R)-3-(3,4-difluoro-2-(2-morpholinoethoxy)phenyl)-N-(6-((R)-1,2-dihydroxyethyl)pyridin-3-yl)-4,5-dimethyl-5-(trifluoromethyl)tetrahydrofuran-2-carboxamide]
14 | 100 to 1000 | C[C@H]1[C@@H](c2ccc(F)c(F)c2OC2CC3(COC3)C2)[C@H](C(=O)Nc2ccc(CO)nc2)O[C@@]1(C)C(F)(F)F [Compound 8, (2R,3S,4S,5R)-3-(2-((2-oxaspiro[3.3]heptan-6-yl)oxy)-3,4-difluorophenyl)-N-(6-(hydroxymethyl)pyridin-3-yl)-4,5-dimethyl-5-(trifluoromethyl)tetrahydrofuran-2-carboxamide]
15 | 100 to 1000 | COc1c([C@H]2[C@H](C(=O)Nc3cnc4c(c3)OCC4O)O[C@@](C)(C(F)(F)F)[C@H]2C)ccc(F)c1F (single isomer, unassigned) [Compound 2, rel-(2R*,3S*,4S*,5R*)-3-(3,4-difluoro-2-methoxyphenyl)-N-(3-hydroxy-2,3-dihydrofuro[3,2-b]pyridin-6-yl)-4,5-dimethyl-5-(trifluoromethyl)tetrahydrofuran-2-carboxamide]
16 | 10 to 100 | COCCOc1c([C@H]2[C@H](C(=O)Nc3cnc(C(O)CO)nc3)O[C@@](C)(C(F)(F)F)[C@H]2C)ccc(F)c1C (single isomer, unassigned) [Compound 17]
17 | ≥ 1000 | COCCOc1c([C@H]2[C@@H](C(=O)Nc3cnc(C(O)CO)nc3)O[C@@](C)(C(F)(F)F)[C@H]2C)ccc(F)c1C (single isomer, unassigned) [Compound 16]
18 | 10 to 100 | C[C@H]1[C@@H](c2ccc(F)c(F)c2OCC2COC2)[C@H](C(=O)Nc2ccc(CO)nc2)O[C@@]1(C)C(F)(F)F [Compound 24, (2R,3S,4S,5R)-3-(3,4-difluoro-2-(oxetan-3-ylmethoxy)phenyl)-N-(6-(hydroxymethyl)pyridin-3-yl)-4,5-dimethyl-5-(trifluoromethyl)tetrahydrofuran-2-carboxamide]
